Source: patent US20090136521A1, “Method for Selectively Depleting Hypoxic Cells” (Genetix Pharmaceuticals , Inc., priority 2005, published 2009)
Entries after “also recorded” stand apart in the source; their conditions may differ.

Legend:
[1] = test system: bone marrow; assay: Hoechst dye perfusion gradient in bone marrow after 5-FU; type: in vivo, mice; conditions: 1 to 6 days after 5-FU; Hoechst dye i.v. 0.8 mg at 5 and 10 min; FIG. 12
Procedure: At different times after 5-FU, Hoechst dye was injected i.v. (0.8 mg at 5 and 10 min) and the bone marrow analyzed for intensity of Hoechst uptake. The plotted graph gives the red fluorescence intensity for cells at the lower 1% level to show how the Hoechst gradient is shortened at 1 to 6 days after 5-FU and provides evidence for improved oxygenation of the cells that remain after treatment.
(§1) Mice: C57BL/6J male mice (with Ly 5.2 marker) obtained from Jackson Laboratories were used for most of the experiments proposed. Mice were maintained in a specific pathogen-free microisolator environment. […] The cellularity of bone marrow and thymus was measured by counting total live cells (using trypan blue) and total WBCs (using crystal violet in 3% acetic acid) on a hemocytometer. […] Briefly, C57BL/6J mice were injected i.v. via the retro-orbital sinus under isoflurane anesthesia with two doses (0.8 mg/mouse) of Hoechst dye (Sigma) at 10 and 5 min before bone marrow harvesting, a period determined to be insufficient for active dye exclusion in vitro. […] The dual emission wavelength of Hoechst fluorescence in bone marrow and thymus was assessed on a logarithmic scale using flow cytometry with exclusion of propidium iodide positive cells. […] The fluorescent intensity for staining was measured using flow cytometry. […]

[2] = test system: Cobblestone Area Forming Cell (CAFC) subsets in bone marrow; assay: Cobblestone Area Forming Cell (CAFC) content of bone marrow after in vivo treatment; set-up: species or system mice
Procedure: FIG. 8 is a depiction of CAFC content per hind limb expressed as percent of untreated (saline injected) control following 4×30 mg/kg tirapazamine (TPZ) 2×10 mg/kg Busulfex (BX) or 4 Gy gamma-irradiation. Data represents the mean of bone marrow cell samples pooled from 3-4 individual mice with 95% confidence limits.
5-FU was administered i.p. to B6 recipients at a single dose of 150 mg/kg. At 2 days, the femoral and tibial bone marrow was harvested, pooled from mice and plated for estimate of CAFC content per hind limb. Error bars represent 95% confidence intervals.
Mice: C57BL/6J male mice (with Ly 5.2 marker) obtained from Jackson Laboratories were used for most of the experiments proposed. Mice were maintained in a specific pathogen-free microisolator environment. For some in vivo repopulation assays, B6.5JL-Ptprc^a Pep3^b/BoyJ congenic mice (with Ly5.1 marker) obtained from Jackson Laboratories were used as donors. Bone marrow, thymus, harvest: Bone marrow cells were harvested from mice by crushing the tibias and femurs from the hind limbs in HBSS containing 2% FBS and […] HEPES buffer (HBSS+). Bone marrow cells, thymocytes and splenocytes were passed through 21 gauge needles to get single cell suspensions. The cellularity of bone marrow and thymus was measured by counting total live cells (using trypan blue) and total WBCs (using crystal violet in 3% acetic acid) on a hemocytometer. Measurement of Hoechst perfusion in vivo in mice: The Hoechst dye perfusion in mice was done according to methods previously described in the literature (Durand et al., 1990; Olive et al., 2000; Olive et al., 2002). Briefly, C57BL/6J mice were injected i.v. via the retro-orbital sinus under isoflurane anesthesia with two doses (0.8 mg/mouse) of Hoechst dye (Sigma) at 10 and 5 min before bone marrow harvesting, a period determined to be insufficient for active dye exclusion in vitro. Tibias and femurs were placed immediately on ice, crushed in a pre-cooled mortar and pestle, filtered and suspended in cold HBSS+. Thymus was harvested and thymocyte cell suspension made by passing the cells through 21 gauge needle. The dual emission wavelength of Hoechst fluorescence in bone marrow and thymus was assessed on a logarithmic scale using flow cytometry with exclusion of propidium iodide positive cells. Pimonidazole binding: The detection of hypoxic cells in bone marrow and thymus was done by pimonidazole binding using methods described by Olive et al. (Olive et al., 2000; Olive et al., 2002). Briefly, the mice were injected i.p. with pimonudazole hydrochloride (Chemicon International) at 120 mg/kg dose and the bone marrow as well as thymus were harvested 3 hrs post-injection. […] The fluorescent intensity for staining was measured using flow cytometry. […]

[3] = test system: HSCs; conditions: single dose; Harrison and Lerner, 1991; cited from earlier work
[4] = test system: SP cells in bone marrow; assay: Side Population (SP) cells in bone marrow after 5-FU; type: in vivo, mice; conditions: different times after 5-FU; FIG. 13
Procedure: At different times after 5-FU, bone marrow was harvested, nucleated cells counted and incubated in Hoechst dye for subsequent analysis on efficient (lower gate) and poor (higher gate) dye effluxing cells in the SP tail. While the percent of SP cells appeared to increase from day 1 to day 4, the cell yield continued to decrease and thus the actual number of SP cells per hind limb remained low.
as §1

SMILES | Hoechst gradient in bone marrow (red fluorescence intensity, lower 1% level) [1] | primitive late-forming CAFCs, bone marrow content ([2]; 5-FU single dose 150 mg/kg i.p., bone marrow at 2 days, FIG. 11) | early-forming CAFC subsets, bone marrow content ([2]; 5-FU single dose 150 mg/kg i.p., bone marrow at 2 days, FIG. 11, 150 mg/kg) | number of functional HSCs ([2]; after 5-FU) | sensitivity of bone marrow HSCs capable of long-term engraftment in irradiated recipients [3] | percent and overall marrow content of SP cells [4] | depletion of late- versus early-forming CAFC subsets (CAFC content per hind limb) ([2]; TPZ 30 mg/kg i.p. daily over 4 days, bone marrow harvested 24 hours after last treatment, FIG. 8)
O=c1[nH]cc(F)c(=O)[nH]1 [5-FU, 5-fluorouracil] | considerably shortened | remain normal | selectively depletes early-forming CAFCs; also recorded: marked depletion | remains unaffected | resistant | decreased; also recorded: dramatic decrease | 
Nc1n[n+]([O-])c2ccccc2[n+]1[O-] [Tirapazamine, 1,2,4-benzotriazin-3-amine 1,4-dioxide] |  |  |  |  |  |  | higher depletion of late-versus early-forming CAFC subsets
